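Values below derive from 48-hour exposures of cells grown in 96-well plates, with endpoints linearly interpolated between the two concentrations bracketing the appropriate inhibition level. At the TGI there is no net growth.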
Key:
Experiment in all cases: NCI anticancer screen, dose series, 48 h
786-0 renal = test system: 786-0 renal
A498 renal = test system: A498 renal
A549 NSCLC = test system: A549 NSCLC
ACHN renal = test system: ACHN renal
BT-549 breast = test system: BT-549 breast
CAKI-1 renal = test system: CAKI-1 renal
CCRF-CEM leukemia = test system: CCRF-CEM leukemia
COLO 205 colon = test system: COLO 205 colon
EKVX NSCLC = test system: EKVX NSCLC
HCC-2998 colon = test system: HCC-2998 colon
HCT-116 colon = test system: HCT-116 colon
HCT-15 colon = test system: HCT-15 colon
HOP-62 NSCLC = test system: HOP-62 NSCLC
HOP-92 NSCLC = test system: HOP-92 NSCLC
HS 578T breast = test system: HS 578T breast
HT29 colon = test system: HT29 colon
IGROV1 ovarian = test system: IGROV1 ovarian
K-562 leukemia = test system: K-562 leukemia
KM12 colon = test system: KM12 colon
LOX IMVI melanoma = test system: LOX IMVI melanoma
M14 melanoma = test system: M14 melanoma
MALME-3M melanoma = test system: MALME-3M melanoma
MCF7 breast = test system: MCF7 breast
MDA-MB-231 breast = test system: MDA-MB-231 breast
MDA-MB-435 = test system: MDA-MB-435
MDA-N = test system: MDA-N
MOLT-4 leukemia = test system: MOLT-4 leukemia
NCI-H226 lung = test system: NCI-H226 lung
NCI-H23 lung = test system: NCI-H23 lung
NCI-H460 lung = test system: NCI-H460 lung
NCI-H522 lung = test system: NCI-H522 lung
NCI/ADR-RES ovarian = test system: NCI/ADR-RES ovarian
OVCAR-3 ovarian = test system: OVCAR-3 ovarian
OVCAR-4 ovarian = test system: OVCAR-4 ovarian
OVCAR-5 ovarian = test system: OVCAR-5 ovarian
OVCAR-8 ovarian = test system: OVCAR-8 ovarian
PC-3 prostate = test system: PC-3 prostate
RPMI-8226 leukemia = test system: RPMI-8226 leukemia
RXF 393 renal = test system: RXF 393 renal
SF-268 CNS = test system: SF-268 CNS
SF-295 CNS = test system: SF-295 CNS
SF-539 CNS = test system: SF-539 CNS
SK-MEL-2 melanoma = test system: SK-MEL-2 melanoma
SK-MEL-5 melanoma = test system: SK-MEL-5 melanoma
SK-OV-3 ovarian = test system: SK-OV-3 ovarian
SN12C renal = test system: SN12C renal
SNB-19 CNS = test system: SNB-19 CNS
SNB-75 CNS = test system: SNB-75 CNS
SR leukemia = test system: SR leukemia
SW-620 colon = test system: SW-620 colon
T-47D breast = test system: T-47D breast
TK-10 renal = test system: TK-10 renal
U251 CNS = test system: U251 CNS
UACC-257 melanoma = test system: UACC-257 melanoma
UACC-62 melanoma = test system: UACC-62 melanoma
UO-31 renal = test system: UO-31 renal
HL-60(TB) leukemia = test system: HL-60(TB) leukemia
SK-MEL-28 melanoma = test system: SK-MEL-28 melanoma
DU-145 prostate = test system: DU-145 prostate

Measured: TGI

[N-]=[N+]=NC1=C(N=[N+]=[N-])c2cccc3cccc(c23)C1=O
not listed: HL-60(TB) leukemia | SK-MEL-28 melanoma | DU-145 prostate
> 100 µM: all other assays above

CC(=O)NNc1nc(C)c(C(/C=C/c2ccc3c(c2)OCO3)=N/NC(=O)c2ccncc2)s1
not listed: COLO 205 colon | DU-145 prostate
> 100 µM: all other assays above

CCOC(=O)/C(C#N)=N\Nc1ccc(-n2c(C)nc3ccc(Br)cc3c2=O)cc1
not listed: HCC-2998 colon | MALME-3M melanoma | NCI-H522 lung | OVCAR-4 ovarian | RXF 393 renal
> 100 µM: all other assays above

From PubChem BioAssay (NCI)
